Assay results: PubChem BioAssay AID1963423 (Molecular Pharmacology Branch, DTP, NCI, 2024)
Values joined by “and” are separate entries in the source; they are usually repeats but may differ in a detail not shown here. Equal values may be shown once.

System: 439559-082-T-J2-PDC complex spheroid growth
Assay: Anticancer human tumor 439559-082-T-J2-PDC patient-derived colon adenocarcinoma cell line growth inhibition [Asc]
Conditions: for viability, T/C: stronger effect = lower value; active = viability on the fitted dose curve at most 10% of control; inactive = the rest
Outline: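 Stromal components (HUVEC and hMSC) are co-assembled with the cancer cells into multicellular spheroids. Drugs are then added singly or paired, at concentrations falling by half-log increments from a clinically achievable maximum, capped at 10 microM without known Cmax.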
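Also: spheroids exposed to agents for 7 days starting day 3 after seeding.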
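For viability, T/C in this document: percent of DMSO vehicle control viability with 100% = vehicle.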

C=CC(=O)N1CCN(c2nc(=O)n(-c3c(C)ccnc3C(C)C)c3nc(-c4c(O)cccc4F)c(F)cc23)C(C)C1 (centres undefined) + Cc1c(S(C)(=O)=O)c(-c2cc(F)cc(N3CCN(c4ccc(NS(=O)(=O)c5ccc(NC(CCN6CCC(C(=O)OCCCP(=O)(O)O)CC6)CSc6ccccc6)c(S(=O)(=O)C(F)(F)F)c5)cc4)CC3)c2)c(-c2ccc(Cl)cc2)n1C(C)C
inactive: viability, T/C (second compound 0.1 µM, first compound 0.0316 µM) 97.6% | viability, T/C (second compound 0.1 µM, first compound 0.1 µM) 112% | viability, T/C (second compound 0.1 µM, first compound 0.316 µM) 99.2% | viability, T/C (second compound 0.1 µM, first compound 1 µM) 97.4% | viability, T/C (second compound 0.1 µM, first compound 3.16 µM) 109% | viability, T/C (second compound 0.1 µM, first compound 10 µM) 99.8% | viability, T/C (second compound 0.316 µM, first compound 0.0316 µM) 93.5% | viability, T/C (second compound 0.316 µM, first compound 0.1 µM) 107% | viability, T/C (second compound 0.316 µM, first compound 0.316 µM) 108% | viability, T/C (second compound 0.316 µM, first compound 1 µM) 98.2% | viability, T/C (second compound 0.316 µM, first compound 3.16 µM) 96.6% | viability, T/C (second compound 0.316 µM, first compound 10 µM) 88.3% | viability, T/C (second compound 1 µM, first compound 0.0316 µM) 99.1% | viability, T/C (second compound 1 µM, first compound 0.1 µM) 102% | viability, T/C (second compound 1 µM, first compound 0.316 µM) 105% | viability, T/C (second compound 1 µM, first compound 1 µM) 88.9% | viability, T/C (second compound 1 µM, first compound 3.16 µM) 89.8% | viability, T/C (second compound 1 µM, first compound 10 µM) 91.6% | viability, T/C (second compound 3.16 µM, first compound 0.0316 µM) 99.1% | viability, T/C (second compound 3.16 µM, first compound 0.1 µM) 101% | viability, T/C (second compound 3.16 µM, first compound 0.316 µM) 103% | viability, T/C (second compound 3.16 µM, first compound 1 µM) 89.1% | viability, T/C (second compound 3.16 µM, first compound 3.16 µM) 88.1% | viability, T/C (second compound 3.16 µM, first compound 10 µM) 94.6% | viability, T/C (second compound 10 µM, first compound 0.0316 µM) 78% | viability, T/C (second compound 10 µM, first compound 0.1 µM) 80% | viability, T/C (second compound 10 µM, first compound 0.316 µM) 80.5% | viability, T/C (second compound 10 µM, first compound 1 µM) 73.8% | viability, T/C (second compound 10 µM, first compound 3.16 µM) 87.6% | viability, T/C (second compound 10 µM, first compound 10 µM) 81.3%
> 10 µM: IC50 (curve of first compound, second compound 0.1 µM) | IC50 (curve of first compound, second compound 0.316 µM) | IC50 (curve of first compound, second compound 1 µM) | IC50 (curve of first compound, second compound 3.16 µM) | IC50 (curve of first compound, second compound 10 µM)

CNC(C)C(=O)NC1CN(S(=O)(=O)c2cccc(S(=O)(=O)N3CCC4CCC(C(=O)NC(c5ccccc5)c5ccccc5)N4C(=O)C(NC(=O)C(C)NC)C3)c2)CCC2CCC(C(=O)NC(c3ccccc3)c3ccccc3)N2C1=O (centres undefined)
> 1 µM: IC50 (compound alone, run of 11/15/2022) | IC50 (curve of compound)
inactive: viability, T/C (compound 0.01 µM) 103% [middle of 9 runs] | viability, T/C (compound 0.0316 µM) 98.1% [middle of 8 runs] | viability, T/C (compound 0.1 µM) 99.7% [middle of 9 runs] | viability, T/C (compound 0.316 µM) 98.3% [middle of 9 runs] | viability, T/C (compound 1 µM) 88.1% [middle of 9 runs]

C=CC(=O)N1CCN(c2nc(=O)n(-c3c(C)ccnc3C(C)C)c3nc(-c4c(O)cccc4F)c(F)cc23)C(C)C1 (centres undefined)
> 10 µM: IC50 (curve of compound)
inactive: viability, T/C (compound 0.0316 µM) 96.5% and 102% (2×) | viability, T/C (compound 0.1 µM) 114% and 106% and 101% | viability, T/C (compound 0.316 µM) 103% and 102% and 108% | viability, T/C (compound 1 µM) 104% and 106% and 114% | viability, T/C (compound 3.16 µM) 108% and 106% and 92.2% | viability, T/C (compound 10 µM) 103% (2×) and 101%
